One assay deals with T1, CD36 (Mus musculus, UniProt Q08857).
T1 construct: freshly isolated and primary cultured mice type II taste bud cells (expressing GPR120 and CD36) are used; endogenous in cells; host or cells: primary mouse taste bud cells from fungiform papillae
Nature of the assay: Ca2+ signaling in mouse taste bud cells in presence or absence of the CD36 inhibitor SSO. It is filed as cell-based. Conditions: for action of the CD36 inhibitor SSO on the increase in [Ca2+]i induced by the compound: 20 μM SSO, mouse taste bud cells, Fura-2/AM; for CD36 agonist character: concluded from suppression by SSO. As to the method: (§1) The mouse taste bud cells were seeded in 24-well plates (with glass bottom), containing poly-D-lysine for better adhesion to the surface. After 24 h, taste cells were incubated for 45 minutes with a fluorescent probe, Fura-2/AM (1 μM) in calcium buffer (110 mM NaCl, 5.4 mM, KCl, 25 mM, NaHCO3, 0.8 mM, MgCl2, 0.4 mM, KH2PO4, 20 mM, Hepes-Na, 0.33 mM, NaHPO4, 1.2 mM, CaCl2), pH 7.4). Then, the cells are washed with phosphate buffer saline (PBS) and taken up in calcium buffer.
(§2) Especially, the increases in [Ca^2+]i were measured as follows: the mice taste bud cells were cultured on Willico-Dish wells with a glass bottom and loaded with a fluorescent probe, Fura-2/AM. The changes in intracellular Ca^2+ (F340/F380) were monitored under the Nikon microscope (TiU) by using S-fluor 40× oil immersion objective. The planes were taken at Z intervals of 0.3 μm, and NIS-Elements software was used to deconvolve the images. The microscope was equipped with EM-CCD (Lucas) camera for real time recording of 16-bit digital images. The dual excitation fluorescence imaging system was used for studies of individual cells. The changes in intracellular Ca^2+ were expressed as ΔRatio, which was calculated as the difference between the peak F340/F380 ratio. The data were summarized from the large number of individual cells (20-40 cells in a single run, with 3-9 identical experiments done in at least three cell preparations). The results were analyzed with the NIS-elements software, the variation in [Ca^2+]i is expressed as A ratio (F340/F380) which was calculated with the difference of spectra at two wavelengths, i.e., 340 nm and 380 nm.
CD36: in order to assess if the oleic acid derivatives according to the invention exert their actions via CD36, the sulfo-N-succinimidyl oleate (SSO) was used. SSO is a CD36 inhibitor/blocker/antagonist.
Experiments were performed in the presence or absence of SSO with respect to calcium signaling to verify whether our analogs act well via this lipid receptor. Especially, for this assay with compounds 3a, 2a and oleic acid (control) were tested.

The next assay concerns mouse taste bud cells. Nature of the assay: Ca2+ signaling (Fura-2/AM, F340/F380) in mouse taste bud cells. Format: cell-based. To be noted: for fat taste receptor(s) through which the compound acts: Ca2+ signaling with SSO or AH7614; for increase in intracellular free calcium concentration [Ca2+]i (F340/F380): mouse taste bud cells loaded with Fura-2/AM. The protocol: The technique to isolate taste bud cells from mouse fungiform papillae has been described in the publication of El-Yassimi A, Hichami A, Besnard P, Khan N A. “Linoleic acid” induces calcium signaling, Src kinase phosphorylation, and neurotransmitter release in mouse CD36-positive gustatory cells”—J. Biol. Chem. 2008 May 9, 283(19), 12949-59.
Briefly, lingual epithelium was separated by enzymatic dissociation which contained the following: elastase and dispase mixture, 2 mg/ml each, in Tyrode's buffer (120 mM NaCl; 5 mM KCl; 10 mM HEPES ((4-(2-hydroxyethyl)-1-piperazineethanesulfonic acid); 1 mM CaCl2); 1 mM MgCl2; 10 mM glucose; 10 mM Na pyruvate, pH 7.4). The taste bud cells were isolated by incubating lingual epithelium in RPMI 1640 medium containing 2 mM EDTA, 1.2 mg/ml elastase, 0.6 mg/ml collagenase (type I), and 0.6 mg/ml trypsin inhibitor at 37° C. for 10 minutes, followed by centrifugation (600 g, 10 minutes). The cell populations, after separation, were suspended in fresh RPMI 1640 medium containing 10% fetal calf serum, 200 U/ml penicillin, and 0.2 mg/ml streptomycin, seeded onto a Poly-D-Lysine-coated dishes, and cultured for 24 hours. At the end of this period, the cells were used for the experiments or stained with trypan blue to assess their viability.
as §1
The changes in intracellular Ca^2+ (F340/F380) were monitored under a Nikon microscope (TiU) by using an S Fluor 40× oil immersion objective.
as §2

Another assay relates to obese C57BL/6J mice. Nature of the assay: Diet-induced obesity, body weight on high-fat diet. Format: in vivo, mouse. To be noted: for body weight in obese mice: HFD 28 weeks, analogue 75 μM in feeder bottles from 10th week, versus HFD only. As to the method: C57BL/6J male mice, aged between 6 to 10 weeks (16-20 g), were obtained from Janvier Labs (France). They were housed individually in a controlled environment with a 12 h light/dark cycle with food (SAFE, France) and water ad libitum. The palm oil (Huilerie Vigean, France) was the main fat component in high-fat diets. The high-fat diet was prepared weekly and stored at 4° C. until further use. The study was conducted as per Declaration of Helsinki and European ethical guidelines for the care and use of animals for experimentation. All the experimental protocols (protocol number: 16158) were approved by the Regional Ethical Committee of the University of Burgundy (Dijon, France).
The mice were grouped at random (n=10/group) and fed with either of the following diets: standard diet (STD) or high-fat diet (HFD). The body weight, food, and water intake were measured, weekly.
(§3) After 10 weeks of feeding the diets, obese animals were divided into two groups: one groups continued to be fed on the same HFD; however, another group was fed on the same diet and received either NKS-3 or NKS-5) until 28th of weeks of experimentation. At the end, the animals were sacrificed, under a fasting condition, and used for different analysis in blood and different tissues.
In order to elucidate the beneficial effects and especially during obesity, experiments were conducted on obese C57BL/6J mice. […] In order to test the curative/interventional effects on obesity, the animals were divided into two groups: one group that consumed only the high-fat diet (HFD) and the other consuming the same diet and also receiving 3a or 2a in ad libitum baby bottles/feeders. From the 10th week of the diet, we introduced lipid analogues into the bottles at 75 μM that corresponded to their preference in the double choice test. […] In addition, the decrease in obesity was maintained until the 28th week of feeding a HFD (FIGS. 6A and 6B). The study was stopped after the 28th week of the diet because the animals reached the age of 34 weeks and beyond that age, the aging factor may interfere with the growth.

Another assay deals with C-reactive protein (CRP). Nature of the assay: CRP concentration in sera of obese mice. Format: in vivo, mouse. Conditions: obese mice on HFD, versus HFD only. The protocol: as §3
The CRP concentration was determined in sera by an automatic analyzer (Gilford Model 2000 system, a Beckman System T.R).

A further assay concerns mice. Nature of the assay: Two-bottle preference test. It is filed as in vivo, mouse. To be noted: for gustatory preference versus control solution (xanthan gum) / concentration preferred (optimal preference) in two-bottle preference test: 12 hours; for gustatory preference versus control solution (xanthan gum): 10 to 100 μM; for concentration preferred (optimal preference) in two-bottle preference test: versus xanthan gum control. The protocol: Eight weeks old, male mice (C57BI/6 black) were purchased from the “Janvier Elevage” (Le Mans) and used for these experiments.
The mice are placed individually in cages in a controlled environment (humidity and constant temperature) and have free access to a standard diet. 6 hours before the tests, the mice are deprived of water.
During the behavioral experiments, the mice were offered two bottles simultaneously for 12 hours (night period).
The mice are subjected to a choice between the “control” solution and the experimental solution (FIG. 4 and FIG. 5). • control solutions contain 0.3% xanthan gum, w/v, (Sigma Life Science, USA) in water to reproduce lipid texture and minimize bias due to differences in appearance between the two bottles; • the experimental solution contains, either the “test compound” according to the invention at a concentration varying from 10 to 100 μM (compound 3a, FIG. 4 or compound 2a, FIG. 5) or only xanthan gum at […] (control test). To avoid the preference for one side, the position of each bottle is changed during each test.
To estimate the consumption of control and experimental solutions, the bottles are weighed before and after each experiment. The mice are allowed to take rest for 48 hours between each experiment.

The target in a further assay is T2, GPR120 (Mus musculus, UniProt Q7TMA4).
T2 construct: freshly isolated and primary cultured mice type II taste bud cells (expressing GPR120 and CD36) are used; endogenous in cells; host or cells: primary mouse taste bud cells from fungiform papillae
T2 sequence (Q7TMA4 1-361): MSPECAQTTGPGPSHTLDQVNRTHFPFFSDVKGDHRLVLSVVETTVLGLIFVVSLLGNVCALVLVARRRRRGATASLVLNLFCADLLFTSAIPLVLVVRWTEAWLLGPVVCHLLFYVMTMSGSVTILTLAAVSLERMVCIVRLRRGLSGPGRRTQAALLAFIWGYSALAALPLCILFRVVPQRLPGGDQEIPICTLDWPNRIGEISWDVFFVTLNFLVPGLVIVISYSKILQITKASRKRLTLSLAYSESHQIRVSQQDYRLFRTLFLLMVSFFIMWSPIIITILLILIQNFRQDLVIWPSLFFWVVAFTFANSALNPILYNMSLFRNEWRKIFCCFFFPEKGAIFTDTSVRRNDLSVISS
Nature of the assay: Ca2+ signaling in mouse taste bud cells in presence or absence of the GPR120 antagonist AH7614. Format: cell-based. Conditions: AH7614 20 μM, compound at 50 μM, cells pre-incubated 15 minutes. The protocol: as §1
as §2, with “The microscope was equipped with EM-CCD (Lucas) camera for real time recording of 16-bit digital images.” left out, “The data were summarized from the large number of individual cells (20-40 cells in a single run, with 3-9 identical experiments done in at least three cell preparations).” left out, “nm. […]” for “nm.”

“Also recorded” adds a separate entry of the source.

T1 sequence (Q08857 whole entry): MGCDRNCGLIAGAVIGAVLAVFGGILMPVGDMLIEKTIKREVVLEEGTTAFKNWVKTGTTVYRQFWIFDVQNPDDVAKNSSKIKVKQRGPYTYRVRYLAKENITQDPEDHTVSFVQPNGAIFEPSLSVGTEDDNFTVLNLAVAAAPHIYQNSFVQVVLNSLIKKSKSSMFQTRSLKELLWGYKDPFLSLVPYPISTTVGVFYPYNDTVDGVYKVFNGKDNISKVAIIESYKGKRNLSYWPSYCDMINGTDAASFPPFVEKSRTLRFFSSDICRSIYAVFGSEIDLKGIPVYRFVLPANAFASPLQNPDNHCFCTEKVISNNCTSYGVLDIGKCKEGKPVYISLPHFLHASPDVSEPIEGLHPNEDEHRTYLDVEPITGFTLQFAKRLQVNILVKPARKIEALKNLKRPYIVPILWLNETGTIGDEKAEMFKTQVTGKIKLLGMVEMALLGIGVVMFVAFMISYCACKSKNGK

With `CCCCCCCC/C=C\CCCCCCCCP(=O)(OCC)OCC` [Compound 3a, diethyl (Z)-octadec-9-en-1-yl phosphonate], on CD36, the “action of the CD36 inhibitor SSO on the increase in [Ca2+]i induced by the compound” value is listed as “completely blocked; also recorded: completely suppressed” and the CD36 agonist character result is recorded as “complete CD36 agonist”. For the same molecule, in the assay with mouse taste bud cells, the “fat taste receptor(s) through which the compound acts” value was “acts both to CD36 and GPR120”; the “increase in intracellular free calcium concentration [Ca2+]i (F340/F380)” value is “rapid and significant rise in calcium signaling; also recorded: huge increase”. Moreover, in the assay with obese C57BL/6J mice, the “body weight in obese mice” value is “significant decrease in body weight”. Also, the “concentration of circulating CRP” value in the assay with C-reactive protein (CRP) is listed as “significantly decreased”. In the assay on mice, the “gustatory preference versus control solution (xanthan gum)” value is “spontaneous preference” and the “concentration preferred (optimal preference) in two-bottle preference test” value was found to be 75 µM.
Take `CCCCCCCC/C=C\CCCCCCCC(=O)OCC1(C)COC1` [Compound 2a, (Z)-(3-methyloxetan-3-yl)methyl octadec-9-enoate]: on CD36, the “action of the CD36 inhibitor SSO on the increase in [Ca2+]i induced by the compound” value was “partially blocked; also recorded: curtailed, but not completely suppressed” and the CD36 agonist character result is “partial agonist”. Moreover, in the assay on mouse taste bud cells, the “fat taste receptor(s) through which the compound acts” value was “bounds to CD36; also recorded: acts on both receptors CD36 and GPR120”; the “increase in intracellular free calcium concentration [Ca2+]i (F340/F380)” value was “rapid and significant rise in calcium signaling; also recorded: huge increase”. Also, the “body weight in obese mice” value with obese C57BL/6J mice is recorded as “significant decrease in body weight”. Besides, in the assay with obese C57BL/6J mice (HFD, 75 μM in feeder bottles), the “anti-obesity effect, comparison of the two analogues” value is “more powerful than 3a”. Also, the “concentration of circulating CRP” value in the assay with C-reactive protein (CRP) is listed as “significantly decreased”. Besides, the “effect of the GPR120 inhibitor AH7614 on the increase in [Ca2+]i induced by the compound” value at GPR120 is “significantly curtailed, but not suppressed”. For the same molecule, in the assay on mice, the “gustatory preference versus control solution (xanthan gum)” value is reported as “spontaneous preference” and the “concentration preferred (optimal preference) in two-bottle preference test” value worked out at 75 µM.
Take `CCCCCCCC/C=C\CCCCCCCC(=O)O` [oleic acid]: the “action of the CD36 inhibitor SSO on the increase in [Ca2+]i induced by the compound” value at CD36 (listed as OA) is reported as “completely blocked; also recorded: partially blocked”. Moreover, the “increase in intracellular free calcium concentration [Ca2+]i (F340/F380)” value in the assay on mouse taste bud cells is “rapid and significant rise in calcium signaling”. In the assay on mice, the “concentration preferred in two-bottle preference test” value was determined as 7.7 mM.
